Laboratory results from ChEMBL document CHEMBL1158420, “Synthesis, spectral, crystal and antimicrobial studies of biologically potent oxime ethers of nitrogen, oxygen and sulfur heterocycles” (2009).
In brackets after ≈: the same amount, converted by molar mass.

Columns and labels:
[1] = system: Pseudomonas aeruginosa; assay: Antibacterial activity against Pseudomonas aeruginosa by twofold dilution method; type: functional
[2] = system: Staphylococcus aureus; assay: Antibacterial activity against Staphylococcus aureus by twofold dilution method; type: functional
[3] = system: Salmonella enterica subsp. enterica; assay: Antibacterial activity against Salmonella typhi by twofold dilution method; type: functional, Salmonella enterica subsp. enterica serovar Typhi
[4] = system: Escherichia coli; assay: Antibacterial activity against Escherichia coli by twofold dilution method; type: functional
[5] = system: Candida albicans; assay: Antifungal activity against Candida albicans by twofold dilution method; type: functional
[6] = system: Candida; assay: Antifungal activity against Candida 51 by twofold dilution method; type: functional
[7] = system: Rhizopus; assay: Antifungal activity against Rhizopus sp. by twofold dilution method; type: functional
[8] = system: Aspergillus niger; assay: Antifungal activity against Aspergillus niger by twofold dilution method; type: functional
[9] = system: Aspergillus flavus; assay: Antifungal activity against Aspergillus flavus by twofold dilution method; type: functional
[10] = system: Cryptococcus neoformans; assay: Antifungal activity against Cryptococcus neoformans by twofold dilution method; type: functional
[11] = system: Staphylococcus aureus; assay: Ratio of MIC for drug to MIC for Ciprofloxacin against Staphylococcus aureus; type: functional
[12] = system: Salmonella enterica subsp. enterica; assay: Ratio of MIC for drug to MIC for Ciprofloxacin against Salmonella typhi; type: functional, Salmonella enterica subsp. enterica serovar Typhi
[13] = Pseudomonas aeruginosa, read-out: MIC
[14] = Staphylococcus aureus, read-out: MIC
[15] = Salmonella enterica, read-out: MIC
[16] = Escherichia coli, read-out: MIC
[17] = Candida albicans, read-out: MIC
[18] = Aspergillus niger, read-out: MIC
[19] = Aspergillus flavus, read-out: MIC
[20] = Cryptococcus neoformans, read-out: MIC

SMILES | MIC [1, 13] [µg/mL] | MIC [2, 14] [µg/mL] | MIC [3, 15] [µg/mL] | MIC [4, 16] [µg/mL] | MIC [5, 17] [µg/mL] | MIC ([6]; Candida, 51, read-out: MIC) [µg/mL] | MIC ([7]; Rhizopus, read-out: MIC) [µg/mL] | MIC [8, 18] [µg/mL] | MIC [9, 19] [µg/mL] | MIC [10, 20] [µg/mL] | other results
CC1C(=NOCc2ccccc2)C(C)C(c2ccccc2)NC1c1ccccc1 (stereo in doubt; 5f2) | – | – | – | – | – | – | – | – | – | – | MIC [1]: 200 µg/mL (≈ 520 µM); MIC [2]: 100 µg/mL (≈ 260 µM); MIC [3]: 100 µg/mL (≈ 260 µM); MIC [4]: 100 µg/mL (≈ 260 µM); MIC [5]: 100 µg/mL (≈ 260 µM); MIC [6]: 100 µg/mL (≈ 260 µM); MIC [7]: 50 µg/mL (≈ 130 µM); MIC [8]: 100 µg/mL (≈ 260 µM); MIC [9]: >200 µg/mL; MIC [10]: 200 µg/mL (≈ 520 µM)
COc1ccc(C2C/C(=N\OCc3ccccc3)C(C)C(c3ccc(OC)cc3)N2)cc1 (stereo not drawn) | 50 (≈ 116 µM) | 25 (≈ 58.1 µM) | 25 (≈ 58.1 µM) | 50 (≈ 116 µM) | 25 (≈ 58.1 µM) | 12.5 (≈ 29 µM) | 25 (≈ 58.1 µM) | 50 (≈ 116 µM) | 50 (≈ 116 µM) | 25 (≈ 58.1 µM) | –
CCOC(=O)C1/C(=N/OCc2ccccc2)CC(c2ccccc2)NC1c1ccccc1 (stereo not drawn) | 50 (≈ 117 µM) | 200 (≈ 467 µM) | 200 (≈ 467 µM) | 100 (≈ 233 µM) | 50 (≈ 117 µM) | 100 (≈ 233 µM) | 200 (≈ 467 µM) | 200 (≈ 467 µM) | 100 (≈ 233 µM) | 100 (≈ 233 µM) | –
CC1/C(=N\OCc2ccccc2)CC(c2ccccc2)OC1c1ccccc1 (stereo not drawn) | 100 (≈ 269 µM) | 100 (≈ 269 µM) | 200 (≈ 538 µM) | 100 (≈ 269 µM) | 100 (≈ 269 µM) | 100 (≈ 269 µM) | 200 (≈ 538 µM) | 200 (≈ 538 µM) | 200 (≈ 538 µM) | 100 (≈ 269 µM) | –
CC(C)C1/C(=N/OCc2ccccc2)CC(c2ccccc2)NC1c1ccccc1 (stereo not drawn) | 200 (≈ 502 µM) | > 200 | 100 (≈ 251 µM) | 100 (≈ 251 µM) | 50 (≈ 125 µM) | 200 (≈ 502 µM) | 50 (≈ 125 µM) | 200 (≈ 502 µM) | 200 (≈ 502 µM) | 100 (≈ 251 µM) | –
C[C@@H]1[C@H](O)[C@@H](C)/C=C/C=C/C=C/C=C/C=C/C=C/C=C/[C@H](O[C@@H]2O[C@H](C)[C@@H](O)[C@H](N)[C@@H]2O)C[C@@H]2O[C@](O)(C[C@@H](O)C[C@@H](O)[C@H](O)CC[C@@H](O)C[C@@H](O)CC(=O)O[C@H]1C)C[C@H](O)[C@H]2C(=O)O [AMPHOTERICIN B] | – | – | – | – | 25 (≈ 27.1 µM) | 25 (≈ 27.1 µM) | 25 (≈ 27.1 µM) | 50 (≈ 54.1 µM) | 50 (≈ 54.1 µM) | 25 (≈ 27.1 µM) | –
Cc1ccc([C@@H]2CC(=NOCc3ccccc3)C[C@@H](c3ccc(C)cc3)S2)cc1 (relative stereo) | 100 (≈ 249 µM) | 100 (≈ 249 µM) | 100 (≈ 249 µM) | 50 (≈ 125 µM) | 50 (≈ 125 µM) | 200 (≈ 498 µM) | 50 (≈ 125 µM) | 100 (≈ 249 µM) | 100 (≈ 249 µM) | 50 (≈ 125 µM) | –
COc1ccc(C2OC(c3ccc(OC)cc3)C(C)C(=NOCc3ccccc3)C2C)cc1 (stereo not drawn) | 25 (≈ 56.1 µM) | 50 (≈ 112 µM) | 50 (≈ 112 µM) | 25 (≈ 56.1 µM) | 50 (≈ 112 µM) | 12.5 (≈ 28.1 µM) | 25 (≈ 56.1 µM) | 50 (≈ 112 µM) | 100 (≈ 224 µM) | 6.25 (≈ 14 µM) | –
COc1ccc(C2NC(c3ccc(OC)cc3)C(C)C(=NOCc3ccccc3)C2C)cc1 (stereo not drawn) | 50 (≈ 112 µM) | 25 (≈ 56.2 µM) | 25 (≈ 56.2 µM) | 25 (≈ 56.2 µM) | 12.5 (≈ 28.1 µM) | 6.25 (≈ 14.1 µM) | 25 (≈ 56.2 µM) | 25 (≈ 56.2 µM) | 100 (≈ 225 µM) | 12.5 (≈ 28.1 µM) | –
CCC1/C(=N\OCc2ccccc2)CC(c2ccccc2)OC1c1ccccc1 (stereo not drawn) | 100 (≈ 259 µM) | 200 (≈ 519 µM) | 100 (≈ 259 µM) | 50 (≈ 130 µM) | 100 (≈ 259 µM) | 100 (≈ 259 µM) | 100 (≈ 259 µM) | 200 (≈ 519 µM) | 100 (≈ 259 µM) | 50 (≈ 130 µM) | –
Cc1ccc(C2CC(=NOCc3ccccc3)CC(c3ccc(C)cc3)N2)cc1 (stereo not drawn) | 50 (≈ 130 µM) | 200 (≈ 520 µM) | 100 (≈ 260 µM) | 200 (≈ 520 µM) | 200 (≈ 520 µM) | 100 (≈ 260 µM) | 100 (≈ 260 µM) | 200 (≈ 520 µM) | 100 (≈ 260 µM) | 200 (≈ 520 µM) | –
CCC1/C(=N/OCc2ccccc2)CC(c2ccccc2)NC1c1ccccc1 (stereo not drawn) | 100 (≈ 260 µM) | 25 (≈ 65 µM) | 50 (≈ 130 µM) | 100 (≈ 260 µM) | 100 (≈ 260 µM) | 100 (≈ 260 µM) | 50 (≈ 130 µM) | 50 (≈ 130 µM) | > 200 | 200 (≈ 520 µM) | –
Cc1ccc([C@@H]2C/C(=N/OCc3ccccc3)C[C@H](c3ccc(C)cc3)S2)cc1 | 25 (≈ 62.3 µM) | 12.5 (≈ 31.1 µM) | 25 (≈ 62.3 µM) | 50 (≈ 125 µM) | 100 (≈ 249 µM) | 100 (≈ 249 µM) | 50 (≈ 125 µM) | 50 (≈ 125 µM) | 100 (≈ 249 µM) | 200 (≈ 498 µM) | Ratio [11]: 2; Ratio [12]: 2
c1ccc(CO/N=C2\C[C@@H](c3ccccc3)S[C@@H](c3ccccc3)C2)cc1 (relative stereo) | 200 (≈ 535 µM) | > 200 | 100 (≈ 268 µM) | 200 (≈ 535 µM) | > 200 | 200 (≈ 535 µM) | 200 (≈ 535 µM) | 100 (≈ 268 µM) | > 200 | > 200 | –
